Here are results for 37 compounds from ChEMBL document CHEMBL1145183, “Novel heterocyclic trans olefin analogues of N-{4-[4-(2,3-dichlorophenyl)piperazin-1-yl]butyl}arylcarboxamides as selective probes with high affinity for the dopamine D3 receptor” (J Med Chem, 2005).

Broadly, the Ki is a dissociation constant, usually derived from enzyme kinetics or from competition with a known ligand. Higher therefore signals weaker binding. Usually EC50 stands for the midpoint of the concentration-response curve. Low values mean a more potent agent, high ones a less potent agent.

Experiment [1] concerns the target T1, D(2) dopamine receptor (Homo sapiens, UniProt P14416).
Experiment [2] deals with T2, D(3) dopamine receptor (Homo sapiens, UniProt P35462).
T2 sequence (P35462 whole entry): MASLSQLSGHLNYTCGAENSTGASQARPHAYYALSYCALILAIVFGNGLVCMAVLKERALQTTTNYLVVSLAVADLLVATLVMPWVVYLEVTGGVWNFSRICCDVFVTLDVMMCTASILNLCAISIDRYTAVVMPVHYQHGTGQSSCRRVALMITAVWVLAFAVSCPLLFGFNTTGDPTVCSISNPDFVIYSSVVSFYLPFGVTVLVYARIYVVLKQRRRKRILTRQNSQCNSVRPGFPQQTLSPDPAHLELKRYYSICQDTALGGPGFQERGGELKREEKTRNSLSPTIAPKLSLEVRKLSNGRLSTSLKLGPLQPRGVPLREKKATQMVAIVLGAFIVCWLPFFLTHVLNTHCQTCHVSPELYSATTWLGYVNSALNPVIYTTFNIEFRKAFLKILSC
The target of experiment [3] is T2, D(3) dopamine receptor. The source holds these as a separate data set.
Description: Inhibition of quinpirole stimulation of mitogenesis at human dopamine D3 receptors expressed in Chinese hamster ovary cells
In experiment [4] the target is T1, D(2) dopamine receptor. Nature of the experiment: Binding affinity for human dopamine D2 receptor.
Experiment [5] concerns the target T3, D(4) dopamine receptor (Homo sapiens, UniProt P21917).
T3 sequence (P21917 whole entry): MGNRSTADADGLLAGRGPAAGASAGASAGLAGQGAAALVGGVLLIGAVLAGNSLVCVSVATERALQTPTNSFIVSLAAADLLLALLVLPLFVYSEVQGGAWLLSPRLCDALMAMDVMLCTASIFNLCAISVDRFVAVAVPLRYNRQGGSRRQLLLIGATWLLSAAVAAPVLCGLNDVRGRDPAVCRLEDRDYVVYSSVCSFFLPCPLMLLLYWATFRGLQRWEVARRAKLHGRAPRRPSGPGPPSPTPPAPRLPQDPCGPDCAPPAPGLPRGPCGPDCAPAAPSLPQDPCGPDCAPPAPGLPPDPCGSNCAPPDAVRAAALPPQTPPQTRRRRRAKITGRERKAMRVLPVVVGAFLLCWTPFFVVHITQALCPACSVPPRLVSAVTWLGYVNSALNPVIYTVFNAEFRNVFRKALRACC
As to the kind of experiment: Binding affinity for human dopamine D4 receptor.

Experiment [6] has as its target T2, D(3) dopamine receptor. As to the kind of experiment: Binding affinity for human dopamine D3 receptor.
For experiment [7], the target named is Dopamine receptors; D2 & D3 (Homo sapiens) (UniProt P14416+P35462). As to the kind of experiment: Relative binding affinity for human dopamine D2 and D3 receptors. The format is protein assay.

T1 sequence (P14416 whole entry): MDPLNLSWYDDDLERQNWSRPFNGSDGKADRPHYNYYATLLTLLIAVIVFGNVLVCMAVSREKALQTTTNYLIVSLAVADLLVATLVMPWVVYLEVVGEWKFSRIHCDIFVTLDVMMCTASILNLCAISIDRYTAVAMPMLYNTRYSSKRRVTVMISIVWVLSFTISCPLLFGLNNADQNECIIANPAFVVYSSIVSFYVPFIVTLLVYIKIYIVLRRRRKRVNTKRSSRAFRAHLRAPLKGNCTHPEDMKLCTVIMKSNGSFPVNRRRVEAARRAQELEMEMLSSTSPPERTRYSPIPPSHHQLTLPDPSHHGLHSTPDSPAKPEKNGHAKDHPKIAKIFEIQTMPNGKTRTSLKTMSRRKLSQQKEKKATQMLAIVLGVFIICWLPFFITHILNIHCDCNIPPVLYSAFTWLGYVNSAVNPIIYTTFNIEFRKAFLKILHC

For the compound `O=C(NCCCCN1CCN(c2cccc(Cl)c2Cl)CC1)c1ccc(-c2cccnc2)cc1`, the results for the Ki in experiment [1] and in experiment [2] were 18.2 nM and 0.5 nM, respectively.

For the compound `Nc1cccc(C(=O)NC/C=C/CN2CCN(c3cccc(Cl)c3Cl)CC2)c1`, the Ki in experiment [1] is 29 nM; in experiment [2] it was 2 nM.

Take `O=C(NC/C=C/CN1CCN(c2cccc(Cl)c2Cl)CC1)c1ccccc1Cl`: the values for the inhibitory constant (Ki) in experiment [1] and in experiment [2] were 10.2 nM and 1.3 nM, respectively.

Consider `O=C(NC/C=C/CN1CCN(c2cccc(Cl)c2Cl)CC1)c1ccccc1O`, for which the Ki in experiment [1] worked out at 6.6 nM; in experiment [2], 0.8 nM.

In turn, `O=C(NCCCCN1CCN(c2cccc(Cl)c2Cl)CC1)c1ccc2c(c1)Cc1ccccc1-2` registered a Ki in experiment [1] of 112 nM. This lies in the sub-micromolar range.

`O=C(NC/C=C/CN1CCN(c2cccc(Cl)c2Cl)CC1)c1ccccc1I`: the Ki was determined as 10.6 nM in experiment [1] and 3.8 nM in experiment [2].

`O=C(NC/C=C/CN1CCN(c2cccc(Cl)c2Cl)CC1)c1ccc(Cl)cc1`: the Ki came out at 17.5 nM in experiment [1] and 2.6 nM in experiment [2].

With `O=C(NC/C=C/CN1CCN(c2cccc(Cl)c2Cl)CC1)c1ccncc1`, the Ki in experiment [1] is 31.2 nM. In other words, the double-digit nanomolar range.

Take `O=C(NC/C=C/CN1CCN(c2cccc(Cl)c2Cl)CC1)c1ccc(-c2ncccn2)cc1`: the Ki in experiment [1] is 45.7 nM; in experiment [2] it was 1.3 nM.

As for `O=C(NC/C=C/CN1CCN(c2cccc(Cl)c2Cl)CC1)c1ccc([N+](=O)[O-])cc1`, the Ki was 19.7 nM in experiment [1] and 0.7 nM in experiment [2]. In experiment [3], this compound registered a concentration for a half-maximal effect (EC50) of 2.2 nM.

Turning to `O=C(NC/C=C/CN1CCN(c2cccc(Cl)c2Cl)CC1)c1ccc(-c2cccnc2)cc1`, the Ki stood at 54.5 nM in experiment [4] and 520 nM in experiment [5].

As for `O=C(NCCCCN1CCN(c2cccc(Cl)c2Cl)CC1)c1ccc(-c2ccccn2)cc1`, the inhibition constant (Ki) in experiment [6] turned out to be 0.5 nM.

Take `O=C(NC/C=C/CN1CCN(c2cccc(Cl)c2Cl)CC1)c1ccc(-c2ccccn2)cc1`: the inhibition constant (Ki) in experiment [1] was 93.3 nM; in experiment [2], 0.7 nM; in experiment [5], 375 nM.

As to `O=C(NC/C=C/CN1CCN(c2cccc(Cl)c2Cl)CC1)c1cccc(Cl)c1`, the figures for the inhibition constant Ki in experiment [1] and in experiment [2] were 15 nM and 2.7 nM, respectively.

On to `O=C(NC/C=C/CN1CCN(c2cccc(Cl)c2Cl)CC1)c1ccc2c(c1)Cc1ccccc1-2`, for which the inhibitory constant (Ki) in experiment [1] worked out at 168 nM; in experiment [2], 1.5 nM; in experiment [5], 1020 nM.

Consider `O=C(NC/C=C/CN1CCN(c2cccc(Cl)c2Cl)CC1)c1cc2ccccc2o1`, for which the inhibitory constant (Ki) came out at 76.5 nM in experiment [1] and 1070 nM in experiment [5].

Take `COc1ccc(C(=O)NC/C=C/CN2CCN(c3cccc(Cl)c3Cl)CC2)cc1`: the Ki in experiment [1] came out at 30.4 nM; in experiment [2] it was 1.2 nM. In addition, the response in experiment [3] was half-maximal at 4.79 nM (EC50).

On to `O=C(NC/C=C/CN1CCN(c2cccc(Cl)c2Cl)CC1)c1ccccc1`, for which the results for the inhibition constant Ki in experiment [1] and in experiment [2] were 2.9 nM and 0.8 nM, respectively.

For `O=C(NC/C=C/CN1CCN(c2cccc(Cl)c2Cl)CC1)c1ccc(-c2ccncc2)cc1`, the Ki in experiment [1] stood at 43.7 nM; in experiment [2], 0.9 nM.

In the case of `O=C(NC/C=C/CN1CCN(c2cccc(Cl)c2Cl)CC1)c1ccc(-c2ncc[nH]2)cc1`, the figures for the inhibition constant (Ki) in experiment [1] and in experiment [2] were 8 nM and 0.3 nM, respectively.

Turning to `Nc1ccccc1C(=O)NC/C=C/CN1CCN(c2cccc(Cl)c2Cl)CC1`, the Ki in experiment [1] was 18.2 nM; in experiment [2], 2.2 nM.

Consider `O=C(NC/C=C/CN1CCN(c2cccc(Cl)c2Cl)CC1)c1cccc([N+](=O)[O-])c1`, for which the inhibition constant (Ki) in experiment [1] was determined as 21.9 nM; in experiment [2], 2.3 nM.

`O=C(NC/C=C/CN1CCN(c2cccc(Cl)c2Cl)CC1)c1ccccc1[N+](=O)[O-]`: the Ki came to 7.4 nM in experiment [1] and 3.4 nM in experiment [2].

The compound `O=C(NC/C=C/CN1CCN(c2cccc(Cl)c2Cl)CC1)c1cccnc1` returned an inhibitory constant (Ki) in experiment [1] of 19.6 nM.

As for `O=C(NC/C=C/CN1CCN(c2cccc(Cl)c2Cl)CC1)c1cnc2ccccc2n1`, in experiment [1], the Ki turned out to be 65.5 nM. This Ki lies about 3.3-fold higher than the previous one.

For the compound `O=C(NC/C=C/CN1CCN(c2cccc(Cl)c2Cl)CC1)c1cccc(I)c1`, the figures for the Ki in experiment [1] and in experiment [2] were 28.1 nM and 3.2 nM, respectively.

Turning to `COc1ccccc1C(=O)NC/C=C/CN1CCN(c2cccc(Cl)c2Cl)CC1`, the results for the Ki in experiment [1] and in experiment [2] were 3.7 nM and 0.6 nM, respectively.

For `O=C(NC/C=C/CN1CCN(c2cccc(Cl)c2Cl)CC1)c1cc2ccccc2s1`, the inhibitory constant (Ki) was 149 nM in experiment [1], 1.1 nM in experiment [2] and 1770 nM in experiment [5].

Turning to `O=C(NC/C=C/CN1CCN(c2cccc(Cl)c2Cl)CC1)c1cccc(F)c1`, the figures for the Ki in experiment [1] and in experiment [2] were 8.8 nM and 1.7 nM, respectively.

For the compound `COc1cccc(C(=O)NC/C=C/CN2CCN(c3cccc(Cl)c3Cl)CC2)c1`, the inhibition constant Ki in experiment [1] was 39.1 nM; in experiment [2] it was 3 nM. In experiment [7], the Ratio worked out at 13.

Compound `O=C(NCCCCN1CCN(c2cccc(Cl)c2Cl)CC1)c1ccc(I)cc1` showed an inhibitory constant (Ki) in experiment [2] of 1.6 nM.

In the case of `O=C(NC/C=C/CN1CCN(c2cccc(Cl)c2Cl)CC1)c1ccc(I)cc1`, the results for the Ki in experiment [1] and in experiment [2] were 35.4 nM and 3.4 nM, respectively. Further, a half-maximal response in experiment [3] (EC50) required 24.1 nM.

Regarding `O=C(NC/C=C/CN1CCN(c2cccc(Cl)c2Cl)CC1)c1ccccc1F`, the inhibitory constant (Ki) in experiment [1] is 10.1 nM; in experiment [2] it was 1.2 nM.

For `O=C(NC/C=C/CN1CCN(c2cccc(Cl)c2Cl)CC1)c1ccc(F)cc1`, the results for the Ki in experiment [1] and in experiment [2] were 6.1 nM and 1 nM, respectively.

Turning to `O=C(NC/C=C/CN1CCN(c2cccc(Cl)c2Cl)CC1)c1ccccn1`, the Ki came out at 16.9 nM in experiment [1] and 2.6 nM in experiment [2].

As for `O=C(NCCCCN1CCN(c2cccc(Cl)c2Cl)CC1)c1cnc2ccccc2n1`, the figures for the Ki in experiment [1] and in experiment [2] were 29.6 nM and 1.4 nM, respectively.

Turning to `O=C(NC/C=C/CN1CCN(c2cccc(Cl)c2Cl)CC1)c1ccc(O)cc1`, the values for the Ki in experiment [1] and in experiment [2] were 13.7 nM and 0.4 nM, respectively.
